Measured values published in EP4653437A2 (Innovo Therapeutics Inc., priority 2023, dated 2024).
pIC50: −log10 of the molar value.

Columns and labels:
[1] = test system: A549 cells; experiment: Measurement of PGE2-increasing activity in A549 cells (IL-1β stimulated, PGE2 quantified in supernatant); format: cell-based; details: Homo sapiens, 24 h; concentration of 1 µM of each compound; IL-1β treated A549 cells; read-out: Increased PGE2 production in A549 cells
Summary of the method: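 PGE2 secreted into the supernatant was measured by immunoassay 24 h after treatment. Before treatment, A549 cells were cultured 24 h in 10% FBS F12K, washed, and placed in serum-free medium containing compound (DMSO 0.1% final) plus or minus IL-1β, incubated at 37 °C, 5% CO2.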

[2] = target: T1, human 15-PGDH (Homo sapiens, UniProt P15428); experiment: Evaluation of 15-PGDH inhibitory activity (fluorescence enzyme assay, NAD+/PGE2); format: biochemical; details: human 15-PGDH enzyme, fluorescence Vmax
T1 construct: purchased R&D System 5660-DH
T1 sequence (P15428 1-266): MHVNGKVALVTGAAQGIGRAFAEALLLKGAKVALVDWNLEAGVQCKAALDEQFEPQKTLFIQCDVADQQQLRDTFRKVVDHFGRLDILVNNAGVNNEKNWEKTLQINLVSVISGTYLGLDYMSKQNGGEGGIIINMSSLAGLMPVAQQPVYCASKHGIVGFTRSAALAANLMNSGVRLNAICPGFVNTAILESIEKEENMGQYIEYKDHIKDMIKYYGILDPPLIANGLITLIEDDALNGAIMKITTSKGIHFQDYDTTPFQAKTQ
Description: 15-PGDH inhibition activity of Example compounds was measured as follows. 6.7 ng of human 15-PGDH (R&D System# 5660-DH) enzyme (10 µL) was added to a black 96 well plate, 60 µL of buffer (50 mM Tris-HCl, pH 7.5, 0.01% Tween 20) was added, and 10 µL of 200 µM β-Nicotinamide adenine dinucleotide sodium salt (Sigma, Cat# N0632-5G) was added. 10 µL of (10x) compound solution in DMSO was added and reacted for 10 minutes at room temperature.

For `O=C(c1cncc(-c2cccc3c(C(=O)N4CCCCC4)cnn23)c1)N1CC(=NO)C1` [Example 230, (3-hydroxyiminoazetidin-1-yl)-[5-[3-(piperidine-1-carbonyl)pyrazolo[1,5-a]pyridin-7-yl]-3-pyridyl]methanone], which fold induction at 1 µM [1] is on record?
The fold induction at 1 µM was > 1.5.

What about the pIC50 [2] of the same compound?
The pIC50 was ≥ 7.00.

How did the fold induction at 1 µM [1] turn out when `O=C(c1cnn2c(NCc3ccc(Cl)cc3)cccc12)N1CCCCC1` [Example 238, [7-[(4-chlorophenyl)methylamino]pyrazolo[1,5-a]pyridin-3-yl]-(1-piperidyl)methanone] was run?
The fold induction at 1 µM was > 1.5.

What about the pIC50 [2] of the same compound?
The pIC50 was ≥ 7.00.

What does the source list for `O=C(c1cnn2c(-c3ccc(Cl)cc3)cccc12)N1CCCCC1` [Example 12, (7-(4-chlorophenyl)pyrazolo[1,5-a]pyridin-3-yl)(piperidin-1-yl)methanone]?
fold induction at 1 µM [1]: > 1.5; pIC50 [2]: ≥ 7.00

Which fold induction at 1 µM [1] does the source give for `O=C(c1cnn2c(-c3ccc(N4CCOC4=O)nc3)cccc12)N1CCCC(F)(F)C1` [Example 384, 3-(5-(3-(3,3-difluoropiperidine-1-carbonyl)pyrazolo[1,5-a]pyridin-7-yl)pyridin-2-yl)oxazolidin-2-one] here?
The fold induction at 1 µM was > 1.5.

What about the pIC50 [2] of the same compound?
The pIC50 was ≥ 7.00.

Which results are given for `C[C@H]1CCCN(C(=O)c2cnn3c(-c4ccc5c(c4)C(=O)NC5)cccc23)C1` [Example 386, (S)-6-(3-(3-methylpiperidine-1-carbonyl)pyrazolo[1,5-a]pyridin-7-yl)isoindolin-1-one]?
fold induction at 1 µM [1]: > 1.5; pIC50 [2]: ≥ 7.00

With `O=C(c1cncc(-c2cccc3c(C(=O)N4CCCCC4)cnn23)c1)N1CCOCC1` [Example 39, (7-(5-(morpholine-4-carbonyl)pyridin-3-yl)pyrazolo[1,5-a]pyridin-3-yl)(piperidin-1-yl)methanone] as the compound, how does the fold induction at 1 µM [1] read?
Its fold induction at 1 µM is < 1.5.

And the pIC50 [2]?
Its pIC50 is ≥ 7.00.

Which fold induction at 1 µM [1] does the source give for `O=C(c1cnn2c(-c3ccc4occc4c3)cccc12)N1CCCCC1` [Example 127, (7-(benzofuran-5-yl)pyrazolo[1,5-a]pyridin-3-yl)(piperidin-1-yl)methanone] here?
Its fold induction at 1 µM is > 1.5.

What about the pIC50 [2] of the same compound?
Its pIC50 is ≥ 7.00.

For `O=C(c1cnn2c(-c3ccc(-c4n[nH]c(=O)o4)cc3)cccc12)N1CCCCC1` [Example 349, 5-[4-[3-(piperidine-1-carbonyl)pyrazolo[1,5-a]pyridin-7-yl]phenyl]-3H-1,3,4-oxadiazol-2-one], which fold induction at 1 µM [1] is on record?
The fold induction at 1 µM was > 1.5.

And the pIC50 [2]?
The pIC50 was ≥ 7.00.

With `CN(C)C1CN(c2cc(-c3cccc4c(C(=O)N5CCCCC5)cnn34)cc(-c3cncc(F)c3)n2)C1` [Example 375, (7-(6-(3-(dimethylamino)azetidin-1-yl)-5'-fluoro-[2,3'-bipyridin]-4-yl)pyrazolo[1,5-a]pyridin-3-yl)(piperidin-1-yl)methanone] as the compound, how does the fold induction at 1 µM [1] read?
Its fold induction at 1 µM is > 1.5.

What about the pIC50 [2] of the same compound?
The pIC50 was ≥ 7.00.

How did the fold induction at 1 µM [1] turn out when `O=C(Nc1cccc2c(C(=O)N3CCCCC3)cnn12)c1cncc(F)c1` [Example 241, 5-fluoro-N-[3-(piperidine-1-carbonyl)pyrazolo[1,5-a]pyridin-7-yl]pyridine-3-carboxamide] was run?
The fold induction at 1 µM was > 1.5.

What about the pIC50 [2] of the same compound?
The pIC50 was ≥ 7.00.

`N#CCCNC(=O)c1cncc(-c2cccc3c(C(=O)N4CCCCC4)cnn23)c1` [Example 51, N-(2-cyanoethyl)-5-(3-(piperidine-1-carbonyl)pyrazolo[1,5-a]pyridin-7-yl)nicotinamide] was tested. Which fold induction at 1 µM [1] did it give?
Its fold induction at 1 µM is > 1.5.

And the pIC50 [2]?
The pIC50 was ≥ 7.00.

What does the source list for `CC(C)Nc1ccc(-c2cccc3c(C(=O)N4CCCCC4)cnn23)cn1` [Example 109, (7-(6-(isopropylamino)pyridin-3-yl)pyrazolo[1,5-a]pyridin-3-yl)(piperidin-1-yl)methanone]?
fold induction at 1 µM [1]: > 1.5; pIC50 [2]: ≥ 7.00

Which fold induction at 1 µM [1] does the source give for `O=C(c1cnn2c(-c3ccc4cn[nH]c(=O)c4c3)cccc12)N1CCCCC1` [Example 224, 7-(3-(piperidine-1-carbonyl)pyrazolo[1,5-a]pyridin-7-yl)phthalazin-1(2H)-one] here?
The fold induction at 1 µM was > 1.5.

And the pIC50 [2]?
Its pIC50 is ≥ 7.00.

Which results are given for `O=C(Nc1ccc(-c2cccc3c(C(=O)N4CCCCC4)cnn23)cc1)C1CC1` [Example 100, N-(4-(3-(piperidine-1-carbonyl)pyrazolo[1,5-a]pyridin-7-yl)phenyl)cyclopropanecarboxamide]?
fold induction at 1 µM [1]: > 1.5; pIC50 [2]: ≥ 7.00

Which results are given for `Cn1oc2ccc(-c3cccc4c(C(=O)N5CCCCC5)cnn34)cc2c1=O` [Example 268, 2-methyl-5-(3-(piperidine-1-carbonyl)pyrazolo[1,5-a]pyridin-7-yl)benzo[d]isoxazol-3(2H)-one]?
fold induction at 1 µM [1]: > 1.5; pIC50 [2]: ≥ 7.00

Which results are given for `O=C1NCc2ccc(-c3cccc4c(C(=O)N5CCCCC5)cnn34)cc21` [Example 140, 6-(3-(piperidine-1-carbonyl)pyrazolo[1,5-a]pyridin-7-yl)isoindolin-1-one]?
fold induction at 1 µM [1]: > 1.5; pIC50 [2]: ≥ 7.00

`O=C(c1cnn2c(-c3ccc(-c4nnn[nH]4)cc3)cccc12)N1CCCCC1` [Example 114, (7-(4-(1H-tetrazol-5-yl)phenyl)pyrazolo[1,5-a]pyridin-3-yl)(piperidin-1-yl)methanone] was tested. Which fold induction at 1 µM [1] did it give?
The fold induction at 1 µM was > 1.5.

What about the pIC50 [2] of the same compound?
The pIC50 was ≥ 7.00.

Which results are given for `Cn1nc2cc(-c3cccc4c(C(=O)N5CCCCC5)cnn34)ccn2c1=O` [Example 252, 2-methyl-7-(3-(piperidine-1-carbonyl)pyrazolo[1,5-a]pyridin-7-yl)-[1,2,4]triazolo[4,3-a]pyridin-3(2H)-one]?
fold induction at 1 µM [1]: > 1.5; pIC50 [2]: ≥ 7.00

What does the source list for `O=C(Nc1cccnc1)c1cccc(-c2cccc3c(C(=O)N4CCCCC4)cnn23)c1` [Example 37, 3-(3-(piperidine-1-carbonyl)pyrazolo[1,5-a]pyridin-7-yl)-N-(pyridin-3-yl)benzamide]?
fold induction at 1 µM [1]: > 1.5; pIC50 [2]: ≥ 7.00

With `O=C(c1cnn2c(-c3ccc(N4C5CCC4CC5)nc3)cccc12)N1CCCCC1` [Example 217] as the compound, how does the fold induction at 1 µM [1] read?
The fold induction at 1 µM was > 1.5.

What about the pIC50 [2] of the same compound?
Its pIC50 is ≥ 7.00.

For `COCCCNc1ccc(-c2cccc3c(C(=O)N4CCCCC4)cnn23)cn1` [Example 107, (7-(6-((3-methoxypropyl)amino)pyridin-3-yl)pyrazolo[1,5-a]pyridin-3-yl)(piperidin-1-yl)methanone], which fold induction at 1 µM [1] is on record?
The fold induction at 1 µM was > 1.5.

And the pIC50 [2]?
The pIC50 was ≥ 7.00.

Which fold induction at 1 µM [1] does the source give for `N#CCNC(=O)c1ccc(-c2cccc3c(C(=O)N4CCCCC4)cnn23)cn1` [Example 86, N-(cyanomethyl)-5-(3-(piperidine-1-carbonyl)pyrazolo[1,5-a]pyridin-7-yl)picolinamide] here?
Its fold induction at 1 µM is > 1.5.

And the pIC50 [2]?
The pIC50 was ≥ 7.00.

For `N#Cc1cc(F)cc(-c2cccc3c(C(=O)N4CCCCC4)cnn23)c1` [Example 291, 3-fluoro-5-(3-(piperidine-1-carbonyl)pyrazolo[1,5-a]pyridin-7-yl)benzonitrile], which fold induction at 1 µM [1] is on record?
The fold induction at 1 µM was > 1.5.

What about the pIC50 [2] of the same compound?
The pIC50 was ≥ 7.00.

Which results are given for `Nc1n[nH]c2ccc(-c3cccc4c(C(=O)N5CCCCC5)cnn34)cc12` [Example 260, [7-(3-amino-1H-indazol-5-yl)pyrazolo[1,5-a]pyridin-3-yl]-(1-piperidyl)methanone]?
fold induction at 1 µM [1]: > 1.5; pIC50 [2]: ≥ 7.00

How did the fold induction at 1 µM [1] turn out when `O=C(c1cnn2c(-c3cc(Br)cnc3N3CC(CO)C3)cccc12)N1CCCCC1` [Example 363, (7-(5-bromo-2-(3-(hydroxymethyl)azetidin-1-yl)pyridin-3-yl)pyrazolo[1,5-a]pyridin-3-yl)(piperidin-1-yl)methanone] was run?
Its fold induction at 1 µM is < 1.5.

What about the pIC50 [2] of the same compound?
The pIC50 was ≥ 7.00.

`O=C(c1cnn2c(-c3ccc(N4CC(F)C4)nc3)cccc12)N1CCCCC1` [Example 208, (7-(6-(3-fluoroazetidin-1-yl)pyridin-3-yl)pyrazolo[1,5-a]pyridin-3-yl)(piperidin-1-yl)methanone] was tested. Which fold induction at 1 µM [1] did it give?
The fold induction at 1 µM was > 1.5.

And the pIC50 [2]?
Its pIC50 is ≥ 7.00.
